These are literature values, as cited in publication PMC11979685, “Synthesis of Derivatives of the Antibiotic Albicidin: The N‐Terminal Fragment as Key to Control Potency and Resistance Mediated by the Binding Protein AlbA” (Chemistry (Weinheim an Der Bergstrasse, Germany), 2025).

What all share (set-up): method as in PMID 36741192
The test system of one series is E. coli BW25113. The following applies: already published elsewhere; cited from earlier work.
For a further series, the system named is E. coli DSM1116. The following applies: already published elsewhere; cited from earlier work.
For series [1], the system named is Salmonella typhimurium TA100. The following applies: already published elsewhere; cited from earlier work.
For the next series, the system named is Bacillus subtilis DSM 10. Particulars: already published elsewhere; cited from earlier work.
The test system of series [2] is Mycobacterium phlei DSM 750. Particulars: already published elsewhere; cited from earlier work.
Another series concerns E. coli. Particulars: E. coli in presence of 50 % human serum; already published elsewhere; cited from earlier work.
In the next series the target is E. coli DNA gyrase (Escherichia coli, UniProt P0AES4). Particulars: E. coli gyrase DNA cleavage; already published elsewhere; read-out: CC50 (concentration at half-maximum cleavage); cited from earlier work.

In brackets after ≈: the same amount, converted by molar mass.

E. coli DNA gyrase, sequence (P0AES4 whole entry): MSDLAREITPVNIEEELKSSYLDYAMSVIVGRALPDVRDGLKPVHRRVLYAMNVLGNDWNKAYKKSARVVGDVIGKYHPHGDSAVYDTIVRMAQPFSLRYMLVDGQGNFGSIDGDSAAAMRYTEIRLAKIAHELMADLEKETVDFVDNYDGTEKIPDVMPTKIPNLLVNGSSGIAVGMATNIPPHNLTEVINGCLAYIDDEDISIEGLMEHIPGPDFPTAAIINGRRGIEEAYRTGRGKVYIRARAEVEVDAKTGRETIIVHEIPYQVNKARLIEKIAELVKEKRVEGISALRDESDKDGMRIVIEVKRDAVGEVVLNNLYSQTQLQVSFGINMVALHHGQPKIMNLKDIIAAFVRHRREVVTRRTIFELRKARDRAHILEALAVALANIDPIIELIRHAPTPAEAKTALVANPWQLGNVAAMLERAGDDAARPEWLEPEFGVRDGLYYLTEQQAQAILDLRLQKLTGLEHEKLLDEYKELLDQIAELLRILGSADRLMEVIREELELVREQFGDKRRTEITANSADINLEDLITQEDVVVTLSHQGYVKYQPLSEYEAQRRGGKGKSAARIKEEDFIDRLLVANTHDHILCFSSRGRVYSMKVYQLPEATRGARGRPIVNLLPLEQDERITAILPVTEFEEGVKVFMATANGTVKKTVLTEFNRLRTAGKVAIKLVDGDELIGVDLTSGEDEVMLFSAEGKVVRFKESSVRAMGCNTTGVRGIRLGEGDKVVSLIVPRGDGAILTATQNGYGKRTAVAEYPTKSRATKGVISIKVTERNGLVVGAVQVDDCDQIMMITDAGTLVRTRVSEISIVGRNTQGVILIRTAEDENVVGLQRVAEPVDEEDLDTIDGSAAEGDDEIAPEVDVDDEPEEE

`COc1c(NC(=O)c2ccc(NC(=O)c3ccc(NC(=O)[C@H](Cc4c[nH]nn4)NC(=O)c4ccc(NC(=O)c5ccc6nc(C)ccc6c5)cc4)cn3)c(OC)c2O)ccc(C(=O)O)c1O` [compound 16]: the “MIC E. coli BW25113” value in the series on E. coli BW25113 was 0.016 µg/mL (≈ 0.0179 µM). Besides, in the series with E. coli DSM1116, the “MIC E. coli DSM1116” value was 0.016 µg/mL (≈ 0.0179 µM). Further, in series [1], the “MIC S. typh.” value was at most 0.016 µg/mL. Further, the “MIC B. sub.” value in the series on Bacillus subtilis DSM 10 was 0.063 µg/mL (≈ 0.0704 µM). Moreover, the “MIC M. phlei” value in series [2] is 0.5 µg/mL (≈ 0.559 µM). Also, the “MICEc 50%HS” value in the series on E. coli is 0.5 µg/mL. In addition, on E. coli DNA gyrase, the CC50 is 25 nM.
